One molecule from paper PMC5719086, “Effective in vivo gene delivery with reduced toxicity, achieved by charge and fatty acid -modified cell penetrating peptide” (Scientific Reports, 2017) can be followed below.

Series [1] can be described thus: Complex stability in FBS, gel shift assay. The settings on record: 50% FBS, 37 °C, 48 h, serum and/or triton + heparin dissociation. In general terms: In EMSA bound probe runs differently from free probe, usually more slowly.
Procedure: Then the samples were mixed with the DNA loading dye and electrophoresed exactly as stated above in the Gel shift assay description, using 0.1 µg of pDNA per lane. ZipRuler Express DNA Ladder 2 (ThermoFisher Scientific) was added to each gel.
The stability of the complexes after incubation in FBS, visualized by gel shift assay.
In series [2] the target is T1, proteinase K (Parengyodontium album, UniProt P06873).
T1 construct: purchased Thermo Scientific
The series is classed as in vitro ADME.

The next series deals with BALB/c mice. The series is described as follows: Side effects / lethality after i.v. injection of complexes. Format: in vivo, mouse. The settings on record: PF14/pDNA at N/P2, i.v., all experiments. On the procedure: For in vivo studies, 20–50 µg of p-CMV-Luc2 (marked as pLuc in the text) per animal was mixed with a peptide at indicated N/P in MQ in a final volume of 100 µl. After 40 minutes of incubation, glucose was added to a final 5% glucose in 200 μl and immediately injected intravenously via the tail vein.
Reporter gene expression levels were evaluated post mortem 24 h after injecting the complexes into the tail vein, using male and female BALB/c mice (8-week-old). Each animal received a single 200 μl i.v. injection of the complexes. The mice were sacrificed using cervical dislocation and tissues were harvested and snap-frozen on dry ice. The whole tissues were homogenized using a Precellys®24-Dual homogenization system (Bertin Technologies, France) and lysed using 1 × Promega lysis buffer (Promega, Sweden). The content of luciferase was analyzed as described previously. Briefly, homogenized tissues were thawed and 500 µl of Promega Reporter lysis 1 × buffer was added. The samples were subsequently vortexed for 15 minutes, subjected to three consecutive freeze-thaw cycles (liquid nitrogen and 37 °C water bath), centrifuged for three minutes at 10,000 x g, 4 °C; the supernatant was removed and saved for later analysis. […] Luciferase was measured with Promega luciferase assay system, in combination with GLOMAX 96 microplate luminometer (Promega, Sweden). […]

Series [3] deals with T1, proteinase K. The series is described as follows: Proteinase K treatment of CPP/pDNA complexes. The series is classed as in vitro ADME. The settings on record: 26 °C. On the procedure: For the proteinase K treatment, 30 μl of pre-formed CPP/pDNA complex solution (0.3, 0.2, 0.1 and 0.05 µg of pDNA per sample) or CPP in MQ was transferred to a black 96-well plate and 90 µl of MQ was added. After a short period of mixing, fluorescent DNA intercalating dye dilution was added (Quant-iT™ PicoGreen®, ThermoFisher Scientific) and incubated for 5 minutes at room temperature. The fluorescence was measured (Synergy MX, BioTek; λex 492 and λem 535) to quantify the initial accessibility of pDNA. Thereafter 10 μl of Proteinase K (Thermo Scientific) was added with the final enzyme concentration ~2.4 U per well. Fluorescence was measured over an indicated period at 26 °C. The readings were normalized against the fluorescence of free pDNA.

The next series concerns CHO cells. The series is described as follows: Plasmid delivery (luciferase) assay in cell culture. The series is classed as cell-based. Conditions: 24-well plate. The method, then:
If not indicated otherwise, complexes were formed using 0.5 μg of pDNA (pGL3, Promega, Sweden) mixed with a peptide at indicated charge ratio (N/P, nitrogen-to-phosphate ratio) in MQ water in a final volume of 50 μl. N/P was calculated theoretically and accounted for both the positive charges of the peptide (Table 1) and negative charges of the pDNA. Thereafter, complexes were incubated for 40 minutes at room temperature prior to each experiment.
For the plasmid delivery assay, 4 × 10^4 CHO cells were seeded 24 hours prior to each experiment in 24-well plates. Cells were treated with CPP/pDNA complexes at indicated N/P for 4 h in serum containing media, followed by the addition of 1 ml 10% serum-containing medium and incubated for another 20 hours. Thereafter, cells were washed with 1x PBS and lysed using 100 µl 0.1% Triton X-100 in PBS for 15 min at 4 °C. Luciferase activity was measured using Promega’s luciferase assay system according to the manufacturer’s protocol using a GLOMAX™ 96 microplate luminometer (Promega, Sweden) and normalized to the protein content (BioRad Protein Assay, USA).

Another series relates to mouse RBC. The series is described as follows: Hemolysis assay (activity towards cell membranes). The series is classed as cell-based. Conditions: 1 h 37 °C, triplicates. The method, then: The ability of the peptides to lyse the red blood cells (RBC) in PBS was used as a measure of membrane activity. To obtain fresh mouse RBC, blood was collected from the saphenous vein using sodium-heparinized (80 iu/ml ± 30%) blood collection capillaries (Marienfeld, Germany) and transferred to heparinized blood collecting tubes (Sarstedt, Germany). To isolate RBCs, the whole blood was centrifuged for 15 minutes at 300 × g, followed by removal of the plasma. The RBCs were then washed three times with 1 × PBS (RBC pelleting with 15 minutes at 300 × g). The resulting RBCs were then resuspended in PBS at 4% (v/v).
For the analysis, 200 μl of RBC suspension was added to 200 μl of peptide solution or peptide/pDNA complexes in 5% glucose (final RBC concentration 2%) and gently vortexed. The peptide/pDNA complexes were prepared using a fixed 1 μg of pDNA and varying amount of the peptide. Following this, samples were incubated for 1 hour at 37 °C with gentle stirring. After incubation, the RBCs were pelleted (15 minutes at 300 × g) and the amount of hemoglobin in the supernatant was assessed by measuring the absorbance at 540 nm using a 96-well microplate reader. The experiments were conducted in triplicates.
100% of hemolysis was defined as the RBCs treated with 0.1% Triton-X100 in PBS and 0% was obtained with cells incubated in 5% glucose solution. % of hemolysis was calculated by the formula: % Hemolysis = [(Asample − Aglucose)/Atriton − Aglucose)] × 100.

Another series deals with lungs. Conditions: Cy5-labelled pDNA, i.v., 1 h post-injection, confocal microscopy of cryosections. The method, then:
The physical accumulation of the complexes were assessed by using Cy5-labeled pDNA (Mirus, USA). Equal amounts of labelled pDNA were administered, regardless of the N/P ratio of the complexes (e.g. N/P4 included 20 μg of labelled pDNA, whereas in case of N/P2, 20 μg of labelled pDNA was mixed with 30 μg of unlabeled pDNA). For the histological evaluation, the lungs were inflated postmortem with 1:1 cryomatrix:PBS (O.C.T embedding matrix, Kaltek, Italy), frozen in 2-methylbutane bath on dry ice. Fresh cryo-sections (10 μm thick) were fixed with ice cold methanol, counterstained with DAPI (AppliChem) and imaged with confocal microscopy (Zeiss LSM710).

Read-outs that look alike come from different tables or passages of the source. Square brackets hold non-standard residues; d marks the D form. Peptide text beside a SMILES is read from it. * marks the point of attachment. Stearoyl = CCCCCCCCCCCCCCCCCC(=O)*; Orn = NCCC[C@H](N)C(=O)O

T1 sequence (P06873 106-384): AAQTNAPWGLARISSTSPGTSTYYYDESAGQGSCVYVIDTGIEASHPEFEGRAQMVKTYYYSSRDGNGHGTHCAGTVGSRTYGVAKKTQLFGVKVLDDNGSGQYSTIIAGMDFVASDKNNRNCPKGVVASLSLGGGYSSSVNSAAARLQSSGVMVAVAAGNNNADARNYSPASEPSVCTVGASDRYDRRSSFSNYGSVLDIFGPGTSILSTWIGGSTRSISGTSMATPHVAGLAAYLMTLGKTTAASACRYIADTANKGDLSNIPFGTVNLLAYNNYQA

Take `CCCCCCCCCCCCCCCCCC(=O)N[C@@H](C)C(=O)NCC(=O)N[C@@H](Cc1ccc(O)cc1)C(=O)N[C@@H](CC(C)C)C(=O)N[C@@H](CC(C)C)C(=O)NCC(=O)N[C@@H](CCCCN)C(=O)N[C@@H](CC(C)C)C(=O)N[C@@H](CC(C)C)C(=O)N[C@@H](CCCN)C(=O)N[C@@H](CCCN)C(=O)N[C@@H](CC(C)C)C(=O)N[C@@H](C)C(=O)N[C@@H](C)C(=O)N[C@@H](C)C(=O)N[C@@H](C)C(=O)N[C@@H](CC(C)C)C(=O)N[C@@H](CCCN)C(=O)N[C@@H](CCCN)C(=O)N[C@@H](CC(C)C)C(=O)N[C@@H](CC(C)C)C(N)=O` [PF14] (Stearoyl-AGYLLGKLL[Orn][Orn]LAAAAL[Orn][Orn]LL-NH2): in series [1], the “pDNA migration from complexes after 48 h in serum (in words)” value is on record as “migration of pDNA from some of the complexes could be observed”. Moreover, the “degradation of naked peptide by proteinase K (in words)” value on proteinase K [2] is “easily degraded”. In addition, the “lethality / side effects, N/P2” value in the series with BALB/c mice is on record as “zero lethality”. Moreover, the “stability of the complexes against proteinase K (in words)” value at proteinase K [3] (CPP/pDNA complexes at N/P2, accessible pDNA over time by intercalating dye) is “less stable particles where DNA was liberated into the solution”. In addition, at proteinase K [3] (CPP/pDNA complexes at N/P2 in MQ, proteinase K ~2.4 U per well, accessible pDNA by PicoGreen fluorescence, normalized to free pDNA), the “Proteinase K: t1/2 (min) of the complexed pDNA (95%CI)” value is given as 108.3 (101.9 ± 118.4) min. The “usable pDNA dose before toxicity, N/P2” value in the series on CHO cells (PF14/pDNA N/P2, CHO cells) is recorded as “up to 2 μg”. The “pDNA dose giving maximum transfection before toxicity, N/P4” value in the series with CHO cells (PF14/pDNA N/P4, CHO cells) worked out at 0.5 μg. For the same molecule, in the series on CHO cells (PF14/pDNA N/P6, CHO cells), the “usable pDNA dose before toxicity, N/P6” value was 0.125 μg. Further, the EC50 in the series with mouse RBC (naked peptide in 5% glucose, mouse RBC 2% final in PBS, hemoglobin absorbance 540 nm, 100% = 0.1% Triton X-100, read-out: EC50 (μM) of CPP (membrane activity, concentration required to lyse 50% of the cells)) is 0.66 µM; with mouse RBC (peptide/pDNA complexes, fixed 1 μg pDNA and varying peptide, mouse RBC 2% final, absorbance 540 nm, read-out: EC50 (μM) of CPP/pDNA (membrane activity)) it was 1.43 µM. In the series on lungs, the “accumulation of complexes in lungs, N/P2 (in words)” value was “significantly lower signal”. The “accumulation of complexes in lungs, N/P4 (in words)” value with lungs is “considerable amount of the fluorescence was observed in lungs”.
